Experimental data reported in ChEMBL document CHEMBL1144896 (2003).

How the values were obtained:
BJ [1] = assay: hTERT-SEAP (Human telomerase reverse transcriptase-SEAP) activity in immortalized hTERT-BJI at 2.2 uM concentration and level of cell viability determined in MTT assay; format: functional
BJ [2] = assay: Compound was tested for cytomegalovirus or (pPCMV-SEAP) activity in immortalized hTERT-BJ1 at 220 uM concentration; format: functional, Homo sapiens
BJ [3] = assay: Compound was tested for human telomerase reverse transcriptase-SEAP (hTERT-SEAP) activity in immortalized hTERT-BJI at 2.2 uM concentration; format: functional
BJ [4] = assay: Compound was tested for cytomegalovirus or (pPCMV-SEAP) activity in immortalized hTERT-BJ1 at 22 uM concentration; format: functional, Homo sapiens
BJ [5] = assay: hTERT-SEAP (Human telomerase reverse transcriptase-SEAP) activity in immortalized hTERT-BJI at 220.0 uM concentration and level of cell viability determined in MTT assay; format: functional
NCI-H1299 [6] = assay: Compound was tested for human telomerase reverse transcriptase-SEAP (hTERT-SEAP) activity in non-small cell lung cancer H1299 cell at 2.2 uM concentration; format: functional
NCI-H1299 [7] = assay: Compound was tested for human telomerase reverse transcriptase-SEAP (hTERT-SEAP) activity in non-small cell lung cancer H1299 cell at 22 uM concentration; format: functional
BJ [8] = assay: pPCMV-SEAP (cytomegalovirus-SEAP) activity in immortalized hTERT-BJ1 at 22 uM concentration and level of cell viability determined in MTT assay; format: functional, Homo sapiens
NCI-H1299 [9] = assay: Compound was tested for human telomerase reverse transcriptase-SEAP (hTERT-SEAP) activity in non-small cell lung cancer H1299 cell at 220.0 uM concentration; format: functional
BJ [10] = assay: hTERT-SEAP (Human telomerase reverse transcriptase-SEAP) activity in immortalized hTERT-BJI at 22 uM concentration and level of cell viability determined in MTT assay; format: functional
BJ [11] = assay: pPCMV-SEAP (cytomegalovirus-SEAP) activity in immortalized hTERT-BJ1 at 2.0 uM concentration and level of cell viability determined in MTT assay; format: functional, Homo sapiens
NCI-H1299 [12] = assay: hTERT-SEAP (Human telomerase reverse transcriptase-SEAP) activity in non-small cell lung cancer H1299 cell at 220.0 uM concentration and level of cell viability determined in MTT assay; format: functional
BJ [13] = assay: Compound was tested for cytomegalovirus or (pPCMV-SEAP) activity in immortalized hTERT-BJ1 at 2.0 uM concentration; format: functional, Homo sapiens
BJ [14] = assay: Compound was tested for human telomerase reverse transcriptase-SEAP (hTERT-SEAP) activity in immortalized hTERT-BJI at 220.0 uM concentration; format: functional
NCI-H1299 [15] = assay: hTERT-SEAP (Human telomerase reverse transcriptase-SEAP) activity in non-small cell lung cancer H1299 cell at 2.2 uM concentration and level of cell viability determined in MTT assay; format: functional
BJ [16] = assay: Compound was tested for human telomerase reverse transcriptase-SEAP (hTERT-SEAP) activity in immortalized hTERT-BJI at 22 uM concentration; format: functional
BJ [17] = assay: pPCMV-SEAP (cytomegalovirus-SEAP) activity in immortalized hTERT-BJ1 at 220 uM concentration and level of cell viability determined in MTT assay; format: functional, Homo sapiens
NCI-H1299 [18] = assay: Compound was tested for human telomerase reverse transcriptase-SEAP (hTERT-SEAP) activity in non-small cell lung cancer H1299 cell at 2.4 uM concentration; format: functional
BJ [19] = assay: Compound was tested for human telomerase reverse transcriptase-SEAP (hTERT-SEAP) activity in immortalized hTERT-BJI at 2.4 uM concentration; format: functional
BJ [20] = assay: Compound was tested for human telomerase reverse transcriptase-SEAP (hTERT-SEAP) activity in immortalized hTERT-BJI at 240.0 uM concentration; format: functional
NCI-H1299 [21] = assay: Compound was tested for human telomerase reverse transcriptase-SEAP (hTERT-SEAP) activity in non-small cell lung cancer H1299 cell at 240.0 uM concentration; format: functional
BJ [22] = assay: pPCMV-SEAP (cytomegalovirus-SEAP) activity in immortalized hTERT-BJ1 at 24 uM concentration and level of cell viability determined in MTT assay; format: functional, Homo sapiens
BJ [23] = assay: Compound was tested for human telomerase reverse transcriptase-SEAP (hTERT-SEAP) activity in immortalized hTERT-BJI at 24 uM concentration; format: functional
BJ [24] = assay: Compound was tested for cytomegalovirus or (pPCMV-SEAP) activity in immortalized hTERT-BJ1 at 24 uM concentration; format: functional, Homo sapiens
BJ [25] = assay: pPCMV-SEAP (cytomegalovirus-SEAP) activity in immortalized hTERT-BJ1 at 2.4 uM concentration and level of cell viability determined in MTT assay; format: functional, Homo sapiens
NCI-H1299 [26] = assay: hTERT-SEAP (Human telomerase reverse transcriptase-SEAP) activity in non-small cell lung cancer H1299 cell at 24 uM concentration and level of cell viability determined in MTT assay; format: functional
NCI-H1299 [27] = assay: hTERT-SEAP (Human telomerase reverse transcriptase-SEAP) activity in non-small cell lung cancer H1299 cell at 2.4 uM concentration and level of cell viability determined in MTT assay; format: functional
NCI-H1299 [28] = assay: Compound was tested for human telomerase reverse transcriptase-SEAP (hTERT-SEAP) activity in non-small cell lung cancer H1299 cell at 24 uM concentration; format: functional
BJ [29] = assay: Compound was tested for cytomegalovirus or (pPCMV-SEAP) activity in immortalized hTERT-BJ1 at 2.4 uM concentration; format: functional, Homo sapiens
NCI-H1299 [30] = assay: hTERT-SEAP (Human telomerase reverse transcriptase-SEAP) activity in non-small cell lung cancer H1299 cell at 240.0 uM concentration and level of cell viability determined in MTT assay; format: functional
BJ [31] = assay: hTERT-SEAP (Human telomerase reverse transcriptase-SEAP) activity in immortalized hTERT-BJI at 240.0 uM concentration and level of cell viability determined in MTT assay; format: functional
BJ [32] = assay: Compound was tested for cytomegalovirus or (pPCMV-SEAP) activity in immortalized hTERT-BJ1 at 240 uM concentration; format: functional, Homo sapiens
BJ [33] = assay: hTERT-SEAP (Human telomerase reverse transcriptase-SEAP) activity in immortalized hTERT-BJI at 24 uM concentration and level of cell viability determined in MTT assay; format: functional
BJ [34] = assay: pPCMV-SEAP (cytomegalovirus-SEAP) activity in immortalized hTERT-BJ1 at 240 uM concentration and level of cell viability determined in MTT assay; format: functional, Homo sapiens
BJ [35] = assay: pPCMV-SEAP (cytomegalovirus-SEAP) activity in immortalized hTERT-BJ1 at 18 uM concentration and level of cell viability determined in MTT assay; format: functional, Homo sapiens
BJ [36] = assay: pPCMV-SEAP (cytomegalovirus-SEAP) activity in immortalized hTERT-BJ1 at 1.8 uM concentration and level of cell viability determined in MTT assay; format: functional, Homo sapiens
NCI-H1299 [37] = assay: hTERT-SEAP (Human telomerase reverse transcriptase-SEAP) activity in non-small cell lung cancer H1299 cell at 180.0 uM concentration and level of cell viability determined in MTT assay; format: functional
NCI-H1299 [38] = assay: hTERT-SEAP (Human telomerase reverse transcriptase-SEAP) activity in non-small cell lung cancer H1299 cell at 1.8 uM concentration and level of cell viability determined in MTT assay; format: functional
BJ [39] = assay: hTERT-SEAP (Human telomerase reverse transcriptase-SEAP) activity in immortalized hTERT-BJI at 18 uM concentration and level of cell viability determined in MTT assay; format: functional
NCI-H1299 [40] = assay: hTERT-SEAP (Human telomerase reverse transcriptase-SEAP) activity in non-small cell lung cancer H1299 cell at 18 uM concentration and level of cell viability determined in MTT assay; format: functional
BJ [41] = assay: Compound was tested for cytomegalovirus or (pPCMV-SEAP) activity in immortalized hTERT-BJ1 at 18 uM concentration; format: functional, Homo sapiens
BJ [42] = assay: pPCMV-SEAP (cytomegalovirus-SEAP) activity in immortalized hTERT-BJ1 at 180 uM concentration and level of cell viability determined in MTT assay; format: functional, Homo sapiens
BJ [43] = assay: Compound was tested for cytomegalovirus or (pPCMV-SEAP) activity in immortalized hTERT-BJ1 at 180 uM concentration; format: functional, Homo sapiens
BJ [44] = assay: Compound was tested for cytomegalovirus or (pPCMV-SEAP) activity in immortalized hTERT-BJ1 at 1.8 uM concentration; format: functional, Homo sapiens
NCI-H1299 [45] = assay: Compound was tested for human telomerase reverse transcriptase-SEAP (hTERT-SEAP) activity in non-small cell lung cancer H1299 cell at 18 uM concentration; format: functional
BJ [46] = assay: Compound was tested for human telomerase reverse transcriptase-SEAP (hTERT-SEAP) activity in immortalized hTERT-BJI at 18 uM concentration; format: functional
NCI-H1299 [47] = assay: Compound was tested for human telomerase reverse transcriptase-SEAP (hTERT-SEAP) activity in non-small cell lung cancer H1299 cell at 1.8 uM concentration; format: functional
NCI-H1299 [48] = assay: Compound was tested for human telomerase reverse transcriptase-SEAP (hTERT-SEAP) activity in non-small cell lung cancer H1299 cell at 180.0 uM concentration; format: functional
BJ [49] = assay: Compound was tested for human telomerase reverse transcriptase-SEAP (hTERT-SEAP) activity in immortalized hTERT-BJI at 180.0 uM concentration; format: functional
BJ [50] = assay: hTERT-SEAP (Human telomerase reverse transcriptase-SEAP) activity in immortalized hTERT-BJI at 180.0 uM concentration and level of cell viability determined in MTT assay; format: functional

COc1ccc(CSc2cccc3c2C(=O)c2cccc(SCc4ccc(OC)cc4)c2C3=O)cc1
Relative viability (BJ [1]): 119%
Relative SEAP activity (BJ [2]): 100%
Relative SEAP activity (BJ [3]): 142%
Relative SEAP activity (BJ [4]): 102%
Relative viability (BJ [5]): 62%
Relative SEAP activity (NCI-H1299 [6]): 92%
Relative SEAP activity (NCI-H1299 [7]): 96%
Relative viability (BJ [8]): 67%
Relative SEAP activity (NCI-H1299 [9]): 88%
Relative viability (BJ [10]): 98%
Relative viability (BJ [11]): 116%
Relative viability (NCI-H1299 [12]): 42%
Relative SEAP activity (BJ [13]): 103%
Relative SEAP activity (BJ [14]): 118%
Relative viability (NCI-H1299 [15]): 89%
Relative SEAP activity (BJ [16]): 141%
Relative viability (BJ [17]): 52%

CC(C)(C)C(=O)Oc1cccc2c1C(=O)c1cccc(OC(=O)C(C)(C)C)c1C2=O
Relative SEAP activity (NCI-H1299 [18]): 105%
Relative SEAP activity (BJ [19]): 147%
Relative SEAP activity (BJ [20]): 141%
Relative SEAP activity (NCI-H1299 [21]): 80%
Relative viability (BJ [22]): 104%
Relative SEAP activity (BJ [23]): 165%
Relative SEAP activity (BJ [24]): 114%
Relative viability (BJ [25]): 115%
Relative viability (NCI-H1299 [26]): 97%
Relative viability (NCI-H1299 [27]): 106%
Relative SEAP activity (NCI-H1299 [28]): 78%
Relative SEAP activity (BJ [29]): 102%
Relative viability (NCI-H1299 [30]): 70%
Relative viability (BJ [31]): 100%
Relative SEAP activity (BJ [32]): 141%
Relative viability (BJ [33]): 93%
Relative viability (BJ [34]): 103%

O=C(Oc1cccc2c1C(=O)c1cccc(OC(=O)c3ccc(Cl)cc3Cl)c1C2=O)c1ccc(Cl)cc1Cl
Relative viability (BJ [35]): 105%
Relative viability (BJ [36]): 105%
Relative viability (NCI-H1299 [37]): 77%
Relative viability (NCI-H1299 [38]): 108%
Relative viability (BJ [39]): 102%
Relative viability (NCI-H1299 [40]): 103%
Relative SEAP activity (BJ [41]): 111%
Relative viability (BJ [42]): 108%
Relative SEAP activity (BJ [43]): 121%
Relative SEAP activity (BJ [44]): 99%
Relative SEAP activity (NCI-H1299 [45]): 102%
Relative SEAP activity (BJ [46]): 150%
Relative SEAP activity (NCI-H1299 [47]): 100%
Relative SEAP activity (NCI-H1299 [48]): 96%
Relative SEAP activity (BJ [49]): 160%
Relative viability (BJ [50]): 96%
